Patent US20260365671A1, “HETEROCYCLIC COMPOUND” (Takeda Pharmaceutical Company Limited, priority 2022, published 2026)

Experiments:
NLRP3 inflammasome = biological target: T1, NLRP3 inflammasome (Homo sapiens, UniProt Q96P20); experiment: IL-1β TR-FRET assay (THP-1 cells differentiated to macrophages with IFN-γ, LPS primed, ATP activated; HTRF); type: cell-based; details: THP-1 macrophages, 50 ng/mL LPS priming, compound 30 min, 20 mM ATP 2 hours
T1 construct: IL-1beta HTRF
Procedure, shortened: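 THP-1 cells differentiated with 25 ng/mL IFN-γ for 24 h, primed with 50 ng/mL LPS in serum-free medium for 24 h, then treated with compounds for 30 min before 20 mM ATP activation for 2 h at 37 °C. Secreted IL-1β quantified by HTRF; IC50 from logistic fit of % inhibition.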

NF-κB pathway = experiment: TNF-α assay (THP-1 cells differentiated to macrophages with IFN-γ, NF-κB pathway activated with LPS; ELISA); type: cell-based, Human; details: Homo sapiens, THP-1, THP-1 macrophages, compound 30 min, 50 ng/mL LPS 3 hours
Procedure, shortened: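 THP-1 cells differentiated with 25 ng/mL IFN-γ for 24 h, then 30 min with compounds in serum-free medium. NF-κB activated with 50 ng/mL LPS, 3 h at 37 °C. Supernatant TNF-α by ELISA; IC50 from four-parameter logistic fit of % inhibition.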

T1 sequence (Q96P20 whole entry): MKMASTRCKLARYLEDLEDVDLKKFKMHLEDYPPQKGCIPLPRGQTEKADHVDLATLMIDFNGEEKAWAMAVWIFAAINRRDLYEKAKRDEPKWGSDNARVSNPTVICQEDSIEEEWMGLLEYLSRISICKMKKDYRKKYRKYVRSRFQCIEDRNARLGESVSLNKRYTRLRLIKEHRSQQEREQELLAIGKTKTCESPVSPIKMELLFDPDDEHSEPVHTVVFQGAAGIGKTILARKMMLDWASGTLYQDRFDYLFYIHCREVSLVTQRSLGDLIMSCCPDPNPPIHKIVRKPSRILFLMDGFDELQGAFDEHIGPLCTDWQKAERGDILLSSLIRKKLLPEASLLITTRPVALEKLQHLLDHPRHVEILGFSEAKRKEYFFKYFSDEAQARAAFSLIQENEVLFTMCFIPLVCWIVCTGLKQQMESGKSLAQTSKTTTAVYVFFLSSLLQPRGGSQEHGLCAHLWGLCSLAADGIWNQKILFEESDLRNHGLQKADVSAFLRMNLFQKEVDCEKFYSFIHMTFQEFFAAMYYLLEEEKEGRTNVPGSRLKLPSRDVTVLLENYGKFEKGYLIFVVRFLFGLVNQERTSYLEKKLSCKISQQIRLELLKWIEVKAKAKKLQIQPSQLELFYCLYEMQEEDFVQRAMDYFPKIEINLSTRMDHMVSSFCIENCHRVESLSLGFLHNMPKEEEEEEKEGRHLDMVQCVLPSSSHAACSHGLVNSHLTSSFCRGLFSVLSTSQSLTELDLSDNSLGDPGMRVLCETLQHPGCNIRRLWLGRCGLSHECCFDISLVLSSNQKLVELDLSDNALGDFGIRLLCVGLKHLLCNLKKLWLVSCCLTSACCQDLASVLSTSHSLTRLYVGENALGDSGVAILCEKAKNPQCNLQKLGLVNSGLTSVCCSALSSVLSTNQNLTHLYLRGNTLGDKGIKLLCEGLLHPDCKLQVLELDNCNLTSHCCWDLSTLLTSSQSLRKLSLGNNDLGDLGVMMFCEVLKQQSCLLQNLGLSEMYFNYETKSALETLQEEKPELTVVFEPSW

| SMILES | IC50 (NLRP3 inflammasome) [nM] | IC50 (NF-κB pathway) [µM] |
| --- | --- | --- |
| Cc1cc(C)c(-n2cc3sc(NC4CCN(S(C)(=O)=O)CC4)nc3n2)c(O)c1 [Example 128, 2-(5-{[1-(methanesulfonyl)piperidin-4-yl]amino}-2H-pyrazolo[3,4-d][1,3]thiazol-2-yl)-3,5-dimethylphenol] | 1200 | > 30 |
| Cc1cc(C)c(-n2cc3sc(NC4CCN(CC(F)F)CC4)nc3n2)c(O)c1 [Example 129, 2-(5-{[1-(2,2-difluoroethyl)piperidin-4-yl]amino}-2H-pyrazolo[3,4-d][1,3]thiazol-2-yl)-3,5-dimethylphenol] | 2300 | > 10 |
| COC(=O)N1CCC(Nc2nc3nn(-c4c(C)cc(C)cc4O)cc3s2)CC1 [Example 130, methyl 4-{[2-(2-hydroxy-4,6-dimethylphenyl)-2H-pyrazolo[3,4-d][1,3]thiazol-5-yl]amino}piperidine-1-carboxylate] | 1100 | > 30 |
| CNC(=O)N1CCC(Nc2nc3nn(-c4c(C)cc(C)cc4O)cc3s2)CC1 [Example 131, 4-{[2-(2-hydroxy-4,6-dimethylphenyl)-2H-pyrazolo[3,4-d][1,3]thiazol-5-yl]amino}-N-methylpiperidine-1-carboxamide] | 580 | > 30 |
| CCC(=O)N1CCC(Nc2nc3nn(-c4c(C)cc(C)cc4O)cc3s2)CC1 [Example 132, 1-(4-{[2-(2-hydroxy-4,6-dimethylphenyl)-2H-pyrazolo[3,4-d][1,3]thiazol-5-yl]amino}piperidin-1-yl)propan-1-one] | 1000 | > 30 |
| CC(=O)N1CCC(Nc2nc3nn(-c4c(C)cc(C)cc4O)cc3s2)CC1 [Example 133, 1-(4-{[2-(2-hydroxy-4,6-dimethylphenyl)-2H-pyrazolo[3,4-d][1,3]thiazol-5-yl]amino}piperidin-1-yl)ethan-1-one] | 880 | > 30 |
| COc1cc(C)c(-n2cc3sc(N[C@@H]4CN(C)C[C@H]4F)nc3n2)c(O)c1 [Example 134, 2-(5-{[(3R,4R)-4-fluoro-1-methylpyrrolidin-3-yl]amino}-2H-pyrazolo[3,4-d][1,3]thiazol-2-yl)-5-methoxy-3-methylphenol] | 1500 | > 10 |
| COc1cc(C)c(-n2cc3sc(N[C@H]4CN(C)C[C@@H]4F)nc3n2)c(O)c1 [Example 135, 2-(5-{[(3S,4S)-4-fluoro-1-methylpyrrolidin-3-yl]amino}-2H-pyrazolo[3,4-d][1,3]thiazol-2-yl)-5-methoxy-3-methylphenol] | 90 | > 10 |
| Cc1cc(C)c(-n2cc3sc(N[C@H]4CCN(C)C(=O)C4)nc3n2)c(O)c1 [Example 136, (4S)-4-{[2-(2-hydroxy-4,6-dimethylphenyl)-2H-pyrazolo[3,4-d][1,3]thiazol-5-yl]amino}-1-methylpiperidin-2-one] | 3300 | > 30 |
| Cc1cc(C)c(-n2cc3sc(N[C@@H]4CCN(C)C(=O)C4)nc3n2)c(O)c1 [Example 137, (4R)-4-{[2-(2-hydroxy-4,6-dimethylphenyl)-2H-pyrazolo[3,4-d][1,3]thiazol-5-yl]amino}-1-methylpiperidin-2-one] | 1100 | > 30 |
| Cc1cc(O)c(-n2cc3sc(NCC(C)(C)O)nc3n2)c(C2CC2(F)F)c1 (centres unmarked) [Example 148] | 130 | > 30 |
| Cc1cc(O)c(-n2cc3sc(NC45CCC(O)(CC4)C5)nc3n2)c(C2CC2(F)F)c1 (centres unmarked) [Example 149, 4-({2-[2-(2,2-difluorocyclopropyl)-6-hydroxy-4-methylphenyl]-2H-pyrazolo[3,4-d][1,3]thiazol-5-yl}amino)bicyclo[2.2.1]heptan-1-ol] | 66 | > 30 |
| CCc1cc(C)cc(O)c1-n1cc2sc(NC34CCC(O)(CC3)C4)nc2n1 [Example 150, 4-{[2-(2-ethyl-6-hydroxy-4-methylphenyl)-2H-pyrazolo[3,4-d][1,3]thiazol-5-yl]amino}bicyclo[2.2.1]heptan-1-ol] | 120 | > 10 |
| Cc1cc(C)c(-n2cc3sc(NC4C5CC6CC4CC(O)(C6)C5)nc3n2)c(O)c1 (centres unmarked) [Example 151, 4-{[2-(2-hydroxy-4,6-dimethylphenyl)-2H-pyrazolo[3,4-d][1,3]thiazol-5-yl]amino} adamantan-1-ol] | 6800 | > 10 |
| Cc1cc(C)c(-n2cc3sc(N[C@@H]4CCN(C(=O)OC5CC5)C4)nc3n2)c(O)c1 [Example 153, cyclopropyl (3R)-3-{[2-(2-hydroxy-4,6-dimethylphenyl)-2H-pyrazolo[3,4-d][1,3]thiazol-5-yl]amino}pyrrolidine-1-carboxylate] | 270 | > 30 |
| Cc1cc(C)c(-n2cc3sc(N[C@H]4CCN(C(=O)OC5CC5)C4)nc3n2)c(O)c1 [Example 154, cyclopropyl (3S)-3-{[2-(2-hydroxy-4,6-dimethylphenyl)-2H-pyrazolo[3,4-d][1,3]thiazol-5-yl]amino}pyrrolidine-1-carboxylate] | 1900 | > 30 |
| COC(=O)N1CC[C@@H](Nc2nc3nn(-c4c(C)cc(C)cc4O)cc3s2)C1 [Example 155, methyl (3R)-3-{[2-(2-hydroxy-4,6-dimethylphenyl)-2H-pyrazolo[3,4-d][1,3]thiazol-5-yl]amino}pyrrolidine-1-carboxylate] | 340 | > 30 |
| COC(=O)N1CC[C@H](Nc2nc3nn(-c4c(C)cc(C)cc4O)cc3s2)C1 [Example 156, methyl (3S)-3-{[2-(2-hydroxy-4,6-dimethylphenyl)-2H-pyrazolo[3,4-d][1,3]thiazol-5-yl]amino}pyrrolidine-1-carboxylate] | 2000 | > 10 |

Further lines, results first:

| IC50 (NLRP3 inflammasome) [nM] | IC50 (NF-κB pathway) [µM] | SMILES |
| --- | --- | --- |
| 780 | > 30 | Cc1cc(C)c(-n2cc3sc(NC4CCCN(C)C4=O)nc3n2)c(O)c1 (centres unmarked) [Example 118, 3-{[2-(2-hydroxy-4,6-dimethylphenyl)-2H-pyrazolo[3,4-d][1,3]thiazol-5-yl]amino}-1-methylpiperidin-2-one] |
| 720 | > 30 | CO[C@H](C)CNc1nc2nn(-c3c(C)cc(C)cc3O)cc2s1 [Example 120, 2-(5-{[(2R)-2-methoxypropyl]amino}-2H-pyrazolo[3,4-d][1,3]thiazol-2-yl)-3,5-dimethylphenol] |
| 600 | > 10 | Cc1cc(C)c(-n2cc3sc(NCC4(F)CCC4)nc3n2)c(O)c1 [Example 138, 2-(5-{[(1-fluorocyclobutyl)methyl]amino}-2H-pyrazolo[3,4-d][1,3]thiazol-2-yl)-3,5-dimethylphenol] |
| 280 | > 10 | Cc1cc(C)c(-n2cc3sc(NCC(C)(F)F)nc3n2)c(O)c1 [Example 139, 2-{5-[(2,2-difluoropropyl)amino]-2H-pyrazolo[3,4-d][1,3]thiazol-2-yl}-3,5-dimethylphenol] |
| 400 | > 30 | Cc1cc(C)c(-n2cc3sc(NC(C)C(C)O)nc3n2)c(O)c1 (centres unmarked) [Example 140, 2-{5-[(3-hydroxybutan-2-yl)amino]-2H-pyrazolo[3,4-d] [1,3]thiazol-2-yl}-3,5-dimethylphenol] |
| 59 | > 30 | Cc1cc(O)c(-n2cc3sc(NC[C@@H](C)O)nc3n2)c(C2CC2(F)F)c1 (stereo partly drawn) [Example 141, 3-(2,2-difluorocyclopropyl)-2-(5-{[(2R)-2-hydroxypropyl]amino}-2H-pyrazolo[3,4-d][1,3]thiazol-2-yl)-5-methylphenol] |
| 850 | > 30 | Cc1cc(C)c(-n2cc3sc(N[C@H]4COC[C@H]4F)nc3n2)c(O)c1 [Example 144, 2-(5-{[(3R,4R)-4-fluorooxolan-3-yl]amino}-2H-pyrazolo [3,4-d][1,3]thiazol-2-yl)-3,5-dimethylphenol or 2-(5-{[(3S,4S)-4-fluorooxolan-3-yl]amino}-2H-pyrazolo[3,4-d][1,3]thiazol-2-yl)-3,5-dimethylphenol (tR1)] |
| 380 | > 30 | Cc1cc(C)c(-n2cc3sc(NCC(F)F)nc3n2)c(O)c1 [Example 146, 2-{5-[(2,2-difluoroethyl)amino]-2H-pyrazolo[3,4-d][1,3]thiazol-2-yl}-3,5-dimethylphenol] |
| 840 | > 10 | Cc1cc(C)c(-n2cc3sc(NC4(C(F)F)CC4)nc3n2)c(O)c1 [Example 147, 2-(5-{[1-(difluoromethyl)cyclopropyl]amino}-2H-pyrazolo[3,4-d][1,3]thiazol-2-yl)-3,5-dimethylphenol] |
| 280 | > 30 | Cc1cc(C)c(-n2cc3sc(NCC(F)(F)CO)nc3n2)c(O)c1 [Example 152, 2-{5-[(2,2-difluoro-3-hydroxypropyl)amino]-2H-pyrazolo[3,4-d][1,3]thiazol-2-yl}-3,5-dimethylphenol] |
| 330 | > 30 | Cc1cc(C)c(-n2cc3sc(N[C@@H]4CCOC4)nc3n2)c(O)c1 [Example 157, 3,5-dimethyl-2-(5-{[(3R)-oxolan-3-yl]amino}-2H-pyrazolo[3,4-d][1,3]thiazol-2-yl)phenol] |
| 660 | > 30 | Cc1cc(C)c(-n2cc3sc(N[C@H]4CCOC4)nc3n2)c(O)c1 [Example 158, 3,5-dimethyl-2-(5-{[(3S)-oxolan-3-yl]amino}-2H-pyrazolo[3,4-d][1,3]thiazol-2-yl)phenol] |
| 260 | > 30 | Cc1cc(C)c(-n2cc3sc(NC4COCC4O)nc3n2)c(O)c1 (centres unmarked) [Example 159, 4-{[2-(2-hydroxy-4,6-dimethylphenyl)-2H-pyrazolo[3,4-d][1,3]thiazol-5-yl]amino}oxolan-3-ol] |
